Source: patent US8673816B2, “Surfactants in agrochemical formulations” (Croda, Inc., priority 2009, dated 2014)

System: oil seed rape plants (Brassica napus)
Assay: Greenhouse trial of surfactants as adjuvants for Glyphosate
Type: in vivo
Conditions: for % control: fresh weight vs untreated controls
Excerpt: A greenhouse trial was run to evaluate the effectiveness of the surfactants of the invention as adjuvants for Glyphosate in controlling the growth of (non-roundup ready) oil seed rape plants (Brassica napus). The trial used surfactant of the invention (SE1) and control adjuvant (FAE) at 3 rates, with 3 rates of glyphosate application, and controls including 3 glyphosate rates without surfactant, all grown in randomised blocks. 10 replications were used for each application, with 1 pot (7×7×8 cm) per plot and at least 4 plants per pot, in Levington M2 medium. The greenhouse conditions of temperature and humidity were recorded and watering was carried out by capillary matting. Additional lighting was provided over natural daylight. The glyphosate treatments were carried out using a pre-calibrated Mardrive greenhouse cabinet sprayer at a volume rate of about 200 I.ha^−1. […]
The type and application rate (Rate in g.ha^−1) of nominally 100% adjuvant, the application rate (Rate in g.ha^−1 active) of glyphosate, the glyphosate to adjuvant weight ratio (G:A) applied to the test plants and the visual assessment (%), and the % control are set out in Table AEA1 below.

[1] = 28 d, glyphosate 125 g.ha^−1, no adjuvant
[2] = 28 d, glyphosate 250 g.ha^−1, no adjuvant
[3] = 28 d, glyphosate 500 g.ha^−1, no adjuvant

O=C(O)CNCP(=O)(O)O [Glyphosate, N-phosphonomethyl glycine] was tested, and the “% damage” value (15 d, glyphosate 125 g.ha^−1, no adjuvant) was 0%, the “% damage” value (15 d, glyphosate 250 g.ha^−1, no adjuvant) was 1.5% and the “% damage” value (15 d, glyphosate 500 g.ha^−1, no adjuvant) was 11%. For the same molecule, the “% damage” value (21 d, glyphosate 125 g.ha^−1, no adjuvant) was 5%, the “% damage” value (21 d, glyphosate 250 g.ha^−1, no adjuvant) was 5% and the “% damage” value (21 d, glyphosate 500 g.ha^−1, no adjuvant) was 33%. For the same molecule, the “% control” value [1] was 0.2%, the “% control” value [2] was −6.4% and the “% control” value [3] was 49.5%. For the same molecule, the “% damage” value [1] was 0%, the “% damage” value [2] was 0% and the “% damage” value [3] was 52%.
